Paper PMC4436063 (mBio, 2015)

Target: CheS3
Assay: microscale thermophoresis
Assay type: binding, Rhodospirillum centenum
Conditions: fluorescently labelled CheS3 (Blue-NHS, 100 nM); non-hydrolysable ATP analogue

Nc1ncnc2c1ncn2[C@@H]1O[C@H](COP(=O)(O)OP(=O)(O)OP(O)(O)=S)[C@@H](O)[C@H]1O [ATPγS]
Kd: 112 nM
